Article PMC5469366 (Journal of medicinal chemistry, 2017)
Where “and” joins values, the source holds several entries; their conditions need not be identical. Identical values can stand only once.

How the values were obtained:
[1] = tested on: A. baumannii (ATCC 19606); assay: Micro dilution broth checkerboard; type: cell-based, Acinetobacter baumannii; details: wells at growth–no growth interface
A. baumannii (ATCC19606) [2] = assay: Mouse septicemia model, survival; type: in vivo, C57BL/6 mice
[3] = in vivo; cited from earlier work
[4] = tested on: MDR-A. baumannii ATCC BAA-1800; assay: MIC/MBC broth dilution, MDR A. baumannii; type: cell-based, Acinetobacter baumannii; details: for MBC / MIC: MDR-A. baumannii ATCC BAA-1800, broth dilution
A. baumannii (ATCC19606) [5] = assay: Spontaneous mutation frequency on agar; type: cell-based, Acinetobacter baumannii; details: 4xMIC concentration
Caco-2 permeability = type: in vitro ADME; details: human
A. baumannii ATCC 19606 = assay: MIC/MBC broth dilution, drug sensitive A. baumannii; type: cell-based, Acinetobacter baumannii; details: for MBC: kills 99.9% of bacteria
Vero cells = assay: Cytotoxicity; type: cell-based, monkey; details: MTT assay
[6] = combination of valnemulin and doxycycline

Row | Compound | MIC CA and CB (concentrations of A and B in combination) [1, 6] | MBC [4] | MIC [4] | MIC (A. baumannii ATCC 19606) | MBC (A. baumannii ATCC 19606) | also measured
1 | C[C@H]1c2cccc(O)c2C(=O)C2=C(O)[C@]3(O)C(=O)C(C(N)=O)=C(O)[C@@H](N(C)C)[C@@H]3[C@@H](O)[C@@H]21.O [Doxycycline, doxycycline] | 0.025 µg/mL and 0.05 µg/mL | – | – | – | – | MIC CA and CB (concentrations of A and B in combination) ([1]; combination of 1 and doxycycline): 0.025 µg/mL and 0.05 µg/mL
2 | NC[C@H]1O[C@H](O[C@H]2[C@H](O)[C@@H](O[C@H]3O[C@H](CO)[C@@H](O)[C@H](N)[C@H]3O)[C@H](N)C[C@@H]2N)[C@H](N)C[C@@H]1O [Tobramycin, tobramycin] | – | – | – | – | – | survival of mice (A. baumannii (ATCC19606) [2]; 6.0 mg/kg dose IP): survived the mice
3 | C=C[C@]1(C)C[C@@H](OC(=O)CSC(C)(C)CNC(=O)[C@H](N)C(C)C)[C@]2(C)[C@H](C)CC[C@]3(CCC(=O)[C@H]32)[C@@H](C)[C@@H]1O [Valnemulin, valnemulin] | 0.78 µg/mL and 1.56 µg/mL | – | – | – | – | half-lives in plasma [3]: 1.3 to 2.9 h
4 | C=C[C@]1(C)C[C@@H](OC(=O)CSC(C)(C)CNC(=O)[C@H](N)C(C)C)[C@]2(C)[C@H](C)CC[C@]3(CC[C@@H](O)[C@H]32)[C@@H](C)[C@@H]1O [compound 1, (3R,3aR,4R,5R,7S,8S,9R,9aS,12R)-3,8-dihydroxy-4,7,9,12-tetramethyl-7-vinyldecahydro-4,9a-propanocyclopenta[8]annulen-5-yl 2-((1-((R)-2-amino-3-methylbutanamido)-2-methylpropan-2-yl)thio)acetate] | – | – | – | – | – | concentrations at which the MDR strain was killed ([4]; A. baumannii ATCC BAA-1800): 6.25 to 12.5 µg/mL; spontaneous resistance mutation frequency (A. baumannii (ATCC19606) [5]): 1×10^−8; Papp (Caco-2 permeability): > 1 ×10⁻⁶ cm/s; effectiveness in mouse septicemia model (A. baumannii (ATCC19606) [2]; IP single dose, 2 to 60 mg/kg): showed effectiveness in the same in vivo studies, but required higher dosage than that with 1-Dox35/1
5 | (3R,3aR,4R,5R,7S,8S,9R,9aS,12R)-3,8-dihydroxy-4,7,9,12-tetramethyl-7-vinyldecahydro-4,9a-propanocyclopenta[8]annulen-5-yl 2-((1-((R)-2-((S)-2,5-diaminopentanamido)-3-methylbutanamido)-2-methylpropan-2-yl)thio)acetate [compound 2] | – | >12.5 µg/mL | 3.13 µg/mL | 3.13 µg/mL | >12.5 µg/mL | –
6 | colistin | – | 25.0 µg/mL | >12.5 µg/mL | 3.13 µg/mL | 6.25 µg/mL | Cytotoxicity IC50 (Vero cells): > 200 µg/mL
